Experiment: xn = mol fraction of the nth substance listed
Conditions: 100 kPa

CCCC[n+]1ccn(C)c1.O=S(=O)([N-]S(=O)(=O)C(F)(F)F)C(F)(F)F + CCO
viscosity [mPa·s]
Conditions	x1 = 0.2129	x1 = 0.2688	x1 = 0.4215	x1 = 0.4606	x1 = 0.5784	x1 = 0.6609	x1 = 0.747	x1 = 0.8264	x1 = 1
293 K	5.22	6.47	12.72	13.9	–	24.9	32.4	40.9	63.5
293.3 K	5.19	6.42	12.59	–	20.5	24.6	–	40.4	62.7
293.61 K	5.15	–	12.47	13.7	20.4	24.4	31.8	39.9	–
293.91 K	–	6.33	12.34	–	20.2	–	31.4	39.4	61
294.21 K	5.08	6.28	–	13.42	20	–	31.1	38.9	–
294.52 K	5.05	6.24	12.1	13.3	19.8	23.7	–	–	–
294.82 K	5.01	6.19	–	13.18	19.6	23.5	30.5	38	–
295.12 K	4.98	6.15	–	13.06	19.4	23.3	–	37.6	57.8
295.42 K	–	–	11.75	–	19.2	23.1	29.9	37.1	57
295.73 K	4.91	6.06	11.64	12.82	19	22.8	29.5	–	56.3
296.03 K	4.87	6.02	11.52	12.7	18.9	22.6	29.2	36.2	55.6
296.33 K	4.84	5.98	11.41	12.59	18.7	22.4	28.9	35.8	54.8
296.64 K	4.81	–	11.31	–	18.5	22.2	28.6	35.4	–
296.94 K	4.77	5.89	11.2	–	18.34	22	–	35	53.4
297.24 K	4.74	–	–	12.25	–	21.8	–	34.5	52.7
297.55 K	4.71	5.81	10.99	12.14	18	21.6	27.8	–	52.1
297.85 K	4.68	5.77	10.88	12.04	17.83	21.4	27.5	33.7	–
298.15 K	–	–	10.78	11.93	17.67	21.2	27.2	33.3	50.8
298.45 K	4.61	5.69	10.68	11.82	17.5	–	–	33	50.1
298.76 K	4.58	5.65	–	11.72	17.34	20.8	26.7	–	49.5
299.06 K	–	5.61	10.49	11.62	–	–	26.4	32.2	48.9
299.36 K	4.52	5.57	10.39	11.52	17.03	20.4	26.2	31.8	48.3
299.67 K	4.48	5.53	10.29	–	16.87	20.2	25.9	31.5	47.7
299.97 K	–	5.49	10.2	11.31	–	20	25.6	31.1	47.1
300.27 K	–	5.45	–	11.22	16.56	19.9	–	–	46.5
300.58 K	4.39	5.41	–	11.12	16.41	19.7	25.1	30.4	45.9
300.88 K	4.36	–	–	11.02	16.26	19.5	24.9	30.1	45.4
301.18 K	4.33	–	9.84	10.93	16.11	19.3	24.6	29.7	44.8
301.48 K	–	5.3	9.75	10.83	15.97	19.1	24.4	29.4	44.3
301.79 K	4.27	5.26	9.66	10.74	15.82	19	24.2	29	43.7
302.09 K	4.24	5.22	9.57	10.65	15.68	18.8	23.9	28.7	43.2
302.39 K	4.21	5.19	9.49	–	15.54	18.6	23.7	28.4	42.7
302.7 K	–	–	9.41	10.47	15.4	18.5	–	–	42.2
303 K	4.15	5.11	9.32	–	15.26	18.3	–	27.8	41.7
303.3 K	4.13	–	9.24	10.29	15.12	18.1	23	27.4	41.2
303.61 K	4.1	5.04	9.16	10.2	14.99	18	22.8	27.1	40.7
303.91 K	4.07	5	9.08	10.12	14.85	17.8	22.6	–	40.2
304.21 K	4.04	4.97	9	10.03	14.72	17.6	22.3	26.5	39.8
304.52 K	4.01	4.93	8.92	–	–	17.5	22.1	26.2	–
304.82 K	3.98	–	–	9.87	14.46	17.3	–	26	38.9
305.12 K	3.96	4.86	8.77	9.78	14.33	17.1	21.7	25.7	–
305.42 K	3.93	4.83	8.7	9.7	14.2	16.99	21.5	25.4	38
305.73 K	3.9	4.8	8.62	9.62	14.07	16.84	21.3	25.1	37.5
306.03 K	3.88	–	8.55	9.54	13.95	16.69	21.1	24.8	37.1
306.33 K	3.85	4.73	8.48	9.46	–	16.54	20.9	–	36.7
306.64 K	3.82	–	8.41	9.39	13.7	–	20.7	24.3	36.2
306.94 K	–	4.66	8.34	9.31	13.58	16.24	20.5	24	35.8
307.24 K	3.77	4.63	–	–	13.46	16.09	20.3	23.8	35.4
307.55 K	3.74	4.6	8.2	9.16	13.34	15.95	20.1	23.5	35
307.85 K	3.72	4.56	8.13	9.08	13.23	–	–	–	–

— a compilation of properties of binary mixtures (doi:10.1016/j.molliq.2018.02.064)
